A value given as a limit tells only on which side of the number the result lay.

The record followed here is patent US9067938B2, “Pyrazolopyridinone derivatives as LPA receptor antagonists” (Merck Patent GmbH, priority 2010, dated 2015).

LPA2 receptor, sequence (Q9HBW0 whole entry): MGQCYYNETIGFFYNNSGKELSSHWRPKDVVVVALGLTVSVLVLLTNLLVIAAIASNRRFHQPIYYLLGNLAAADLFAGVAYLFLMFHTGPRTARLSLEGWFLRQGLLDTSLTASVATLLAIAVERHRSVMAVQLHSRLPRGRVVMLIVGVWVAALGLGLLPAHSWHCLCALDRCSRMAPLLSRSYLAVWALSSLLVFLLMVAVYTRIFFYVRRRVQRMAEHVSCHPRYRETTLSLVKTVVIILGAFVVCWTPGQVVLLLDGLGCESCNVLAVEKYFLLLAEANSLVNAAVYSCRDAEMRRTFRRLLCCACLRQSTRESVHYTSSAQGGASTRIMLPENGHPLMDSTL

In the experiment the target is LPA2 receptor (Homo sapiens, UniProt Q9HBW0). Briefly: LPA2R-calciumflux assay. Type of experiment: cell-based. The following applies: U2OS cells recombinant expressing LPA2R; LPA-induced intracellular calcium signal (FLIPR Tetra); 10 concentrations from 30 uM to 1 nM, 1% DMSO. An excerpt:
Description of the LPA2R Assay
Cell Cultivation/Propagation
LPA2R-calciumflux Assay Protocol
The assay detects intra cellular calcium which is generated by cells upon activation of the LPA2 receptor by its ligand LPA. This transient calcium mobilisation can be monitored using a commercial calcium detection kit (e.g. from Molecular Devices). The main component of such a kit is a dye, which becomes fluorescent when calcium is present—a transient fluorescence signal after laddition of a ligand to a test well are the result. Readers like the FLIPR (from Molecular Devices) can be used to monitor such transient “Ca-flux” signals.
The signals are calculated according to peak maximum minus base line. Compounds which are antogonists of LPA lead to a decreased mobilisation of intracellular calcium and thus to a lower signal. The assay is performed in microplates (384 wells per plate).
The assay itself is run according to the following procedure: • 50 uL seed cells (10000 cells/well in DMEM buffer) • Incubate 24 h at 37° C., 10% CO2 • aspirate medium • 50 uL add calcium dye 1×HBSS/HEPES buffer • incubate 1 h at 37° C. (“loading”) • equilibrate 10 min at RT • 5 uL add compounds in HEPES buffer • shake 10 sec. @ 1000 rpm • incubate 15 min at RT • 20 uL add LPA (in the FLIPR Tetra) in KREBS-Puffer/BSA & measurement
The cells are seeded in DMEM buffer (DMEM, 10% FCS, 10 mM HEPES, 1% Pen/Strep).
Dye loading is done in HBSS/HEPES buffer (100 mL 10×HBSS+20 mL 1M HEPES+880 mL water, pH 7.4)
The LPA is added in Krebs/BSA buffer (120 mM NaCl, 5 mM KCl, 0.62 mM MgSO4, 1.8 mM CaCl2, 10 mM HEPES, 6 mM D(+)-Glucose, 0.2% BSA, pH 7.4).
The compounds are pre-diluted in HEPES buffer (20 mM, pH 7.4), whereby the final DMSO content in the assay is kept at 1%. The compounds are pre-diluted in order to generate dose response series on the microplates. The dose response series consist of 10 concentrations for each compound from 30 uM final to 1 nM final. From all compound wells the resulting signals are referred to control wells (located on each plate besides the compound wells) in terms of % activity.
[formula] From these % activity values—along with the corresponding compound concentrations—IC50 values are fitted for each compound using standard fitting programs such as Graphpad Prism. Here the method “log(inhibitor) vs. response—Variable slope” is used. Reader Settings (FLIPR Tetra) • ExcWLength:470—495 • Em.Wlength: 515—575 • Gain: 50 • Exp. Time: 0,4 • Exc.Intensity: 80 • READ with TF • First read interval: 1,00 s • Number of first reads: 240 • Reads before dispense: 10 • Second read interval: 1,00 s • Number of second reads: 0 • Save Images No
In general terms: Calcium assays in cells follow changes in intracellular calcium, usually with a dye or a luminescent sensor.
The term IC50 denotes the midpoint of a concentration-inhibition curve. As to `O=C1CC(O)(C(F)(F)F)c2c(-c3cccc(F)c3)n[nH]c2N1` (stereo not drawn) [Compound 1, 3-(3-Fluoro-phenyl)-4-hydroxy-4-trifluoromethyl-1,4,5,7-tetrahydro-pyrazolo[3,4-b]pyridin-6-one], the 50% inhibitory concentration (IC50) is less than 1 µM.

As for `O=C1CC(O)(C(F)(F)F)c2c(-c3ccccc3)n[nH]c2N1` (stereo not drawn) [Compound 2, 4-Hydroxy-3-phenyl-4-trifluoromethyl-1,4,5,7-tetrahydro-pyrazolo[3,4-b]pyridin-6-one], the IC50 was less than 1 µM.

For `COc1ccc(-c2n[nH]c3c2C(O)(C(F)(F)F)CC(=O)N3)cc1` (stereo not drawn) [Compound 3, 4-Hydroxy-3-(4-methoxy-phenyl)-4-trifluoromethyl-1,4,5,7-tetrahydro-pyrazolo[3,4-b]pyridin-6-one], the IC50 was less than 1 µM.

Turning to `Cn1nc(-c2ccccc2)c2c1NC(=O)CC2(O)C(F)(F)F` (stereo not drawn) [Compound 4, 4-Hydroxy-1-methyl-3-phenyl-4-trifluoromethyl-1,4,5,7-tetrahydro-pyrazolo[3,4-b]pyridin-6-one], the IC50 was more than 10 µM.

As for `O=C1CC(O)(C(F)(F)F)c2c(-c3ccc(Cl)cc3)n[nH]c2N1` (stereo not drawn) [Compound 5, 3-(4-Chloro-phenyl)-4-hydroxy-4-trifluoromethyl-1,4,5,7-tetrahydro-pyrazolo[3,4-b]pyridin-6-one], the IC50 lay in the range of 1 to 10 µM.

Consider `Cc1ccc(-c2n[nH]c3c2C(O)(C(F)(F)F)CC(=O)N3)cc1` (stereo not drawn) [Compound 6, 4-Hydroxy-3-p-tolyl-4-trifluoromethyl-1,4,5,7-tetrahydro-pyrazolo[3,4-b]pyridin-6-one], for which the half-maximal inhibitory concentration (IC50) is less than 1 µM.

Regarding `Cn1nc(-c2cccs2)c2c1NC(=O)CC2(O)C(F)(F)F` (stereo not drawn) [Compound 7, 4-Hydroxy-1-methyl-3-thiophen-2-yl-4-trifluoromethyl-1,4,5,7-tetrahydro-pyrazolo[3,4-b]pyridin-6-one], the IC50 was more than 10 µM.

In the case of `O=C1CC(O)(C(F)(F)F)c2c(-c3cccs3)n[nH]c2N1` (stereo not drawn) [Compound 8, 4-Hydroxy-3-thiophen-2-yl-4-trifluoromethyl-1,4,5,7-tetrahydro-pyrazolo[3,4-b]pyridin-6-one], the IC50 was less than 1 µM.

As for `COc1cc(OC)cc(-c2n[nH]c3c2C(O)(C(F)(F)F)CC(=O)N3)c1` (stereo not drawn) [Compound 9, 3-(3,5-Dimethoxy-phenyl)-4-hydroxy-4-trifluoromethyl-1,4,5,7-tetrahydro-pyrazolo[3,4-b]pyridin-6-one], the IC50 is less than 1 µM.

For `O=C1C[C@@](O)(C(F)(F)F)c2c(-c3ccccc3)n[nH]c2N1` [Compound 10, (−)-4-Hydroxy-3-phenyl-4-trifluoromethyl-1,4,5,7-tetrahydro-pyrazolo[3,4-b]pyridin-6-one], the IC50 was less than 1 µM.

As to `O=C1C[C@](O)(C(F)(F)F)c2c(-c3ccccc3)n[nH]c2N1` [Compound 11, (+)-4-Hydroxy-3-phenyl-4-trifluoromethyl-1,4,5,7-tetrahydro-pyrazolo[3,4-b]pyridin-6-one], the IC50 was more than 10 µM.

On to `O=C1CC(O)(C(F)(F)F)c2c(-c3ccc(Br)cc3)n[nH]c2N1` (stereo not drawn) [Compound 12, 3-(4-Bromo-phenyl)-4-hydroxy-4-trifluoromethyl-1,4,5,7-tetrahydro-pyrazolo[3,4-b]pyridin-6-one], for which the IC50 was more than 10 µM.

For the compound `O=C1CC(O)(C(F)(F)F)c2c(-c3cccc(Br)c3)n[nH]c2N1` (stereo not drawn) [Compound 13, 3-(3-Bromo-phenyl)-4-hydroxy-4-trifluoromethyl-1,4,5,7-tetrahydro-pyrazolo[3,4-b]pyridin-6-one], the IC50 is less than 1 µM.

On to `O=C1CC(O)(C(F)(F)F)c2c(-c3cccc(Cl)c3)n[nH]c2N1` (stereo not drawn) [Compound 14, 3-(3-Chloro-phenyl)-4-hydroxy-4-trifluoromethyl-1,4,5,7-tetrahydro-pyrazolo[3,4-b]pyridin-6-one], for which the IC50 is less than 1 µM.

As for `O=C1CC(O)(C(F)(F)F)c2c(-c3cccc(C(F)(F)F)c3)n[nH]c2N1` (stereo not drawn) [Compound 15, 4-Hydroxy-4-trifluoromethyl-3-(3-trifluoromethyl-phenyl)-1,4,5,7-tetrahydro-pyrazolo[3,4-b]pyridin-6-one], the IC50 is less than 1 µM.

On to `O=C1CC(O)(C(F)(F)F)c2c(C3CC3)n[nH]c2N1` (stereo not drawn) [Compound 16, 3-Cyclopropyl-4-hydroxy-4-trifluoromethyl-1,4,5,7-tetrahydro-pyrazolo[3,4-b]pyridin-6-one], for which the half-maximal inhibitory concentration (IC50) is more than 10 µM.

Turning to `O=C1CC(O)(C(F)(F)F)c2c(-c3ccc(F)cc3)n[nH]c2N1` (stereo not drawn) [Compound 17, 3-(4-Fluoro-phenyl)-4-hydroxy-4-trifluoromethyl-1,4,5,7-tetrahydro-pyrazolo[3,4-b]pyridin-6-one], the IC50 is less than 1 µM.

As to `Cn1nc(-c2ccc(Cl)cc2)c2c1NC(=O)CC2(O)C(F)(F)F` (stereo not drawn) [Compound 18, 3(4-Chloro-phenyl)-4-hydroxy-1-methyl-4-trifluoromethyl-1,4,5,7-tetrahydro-pyrazolo[3,4-b]pyridin-6-one], the IC50 was more than 10 µM.

Turning to `O=C1CC(O)(C(F)(F)F)c2c(-c3ccccc3)nn(-c3ccccc3)c2N1` (stereo not drawn) [Compound 19, 4-Hydroxy-1,3-diphenyl-4-trifluoromethyl-1,4,5,7-tetrahydro-pyrazolo[3,4-b]pyridin-6-one], the IC50 is more than 10 µM.

With `O=C1C[C@@](O)(C(F)(F)F)c2c(-c3cccc(F)c3)n[nH]c2N1` [Compound 20, (−)-3-(3-Fluoro-phenyl)-4-hydroxy-4-trifluoromethyl-1,4,5,7-tetrahydro-pyrazolo[3,4-b]pyridin-6-one], the IC50 was less than 1 µM.

On to `O=C1C[C@](O)(C(F)(F)F)c2c(-c3cccc(F)c3)n[nH]c2N1` [Compound 21, (+)-3-(3-Fluoro-phenyl)-4-hydroxy-4-trifluoromethyl-1,4,5,7-tetrahydro-pyrazolo[3,4-b]pyridin-6-one], for which the IC50 is more than 10 µM.

On to `O=C1CC(O)(C(F)(F)F)c2c(-c3ccncc3)n[nH]c2N1` (stereo not drawn) [Compound 22, 4-Hydroxy-3-pyridin-4-yl-4-trifluoromethyl-1,4,5,7-tetrahydro-pyrazolo[3,4-b]pyridin-6-one], for which the IC50 was less than 1 µM.

As for `CC1C(=O)Nc2[nH]nc(-c3ccccc3)c2C1(O)C(F)(F)F` (stereo not drawn) [Compound 24, 4-Hydroxy-5-methyl-3-phenyl-4-trifluoromethyl-1,4,5,7-tetrahydro-pyrazolo[3,4-b]pyridin-6-one], the half-maximal inhibitory concentration (IC50) lay in the range of 1 to 10 µM.

In the case of `CCC1C(=O)Nc2[nH]nc(-c3ccccc3)c2C1(O)C(F)(F)F` (stereo not drawn) [Compound 25, 4-Hydroxy-5-ethyl-3-phenyl-4-trifluoromethyl-1,4,5,7-tetrahydro-pyrazolo[3,4-b]pyridin-6-one], the IC50 was more than 10 µM.

As to `O=C1Nc2[nH]nc(-c3ccccc3)c2C(O)(C(F)(F)F)C1CCO` (stereo not drawn) [Compound 26, 4-Hydroxy-5-(2-hydroxy-ethyl)-3-phenyl-4-trifluoromethyl-1,4,5,7-tetrahydro-pyrazolo[3,4-b]pyridin-6-one], the IC50 is more than 10 µM.

With `COC1C(=O)Nc2[nH]nc(-c3ccccc3)c2C1(O)C(F)(F)F` (stereo not drawn) [Compound 27, 4-Hydroxy-5-methoxy-3-phenyl-4-trifluoromethyl-1,4,5,7-tetrahydro-pyrazolo[3,4-b]pyridin-6-one], the IC50 was more than 10 µM.

For the compound `O=C1CC(O)(C(F)(F)F)c2c(Cc3ccccc3)n[nH]c2N1` (stereo not drawn) [Compound 28, 3-Benzyl-4-hydroxy-4-trifluoromethyl-1,4,5,7-tetrahydro-pyrazolo[3,4-b]pyridin-6-one], the IC50 is more than 10 µM.

For the compound `O=C1CC(O)(C(F)(F)F)c2c(-c3c[nH]c4ccccc34)n[nH]c2N1` (stereo not drawn) [Compound 29, 4-Hydroxy-3-(1H-indol-3-yl)-4-trifluoromethyl-1,4,5,7-tetrahydro-pyrazolo[3,4-b]pyridin-6-one], the IC50 was more than 10 µM.

Consider `O=C1CC(O)(C(F)(F)F)c2c(-c3ccco3)n[nH]c2N1` (stereo not drawn) [Compound 30, 3-Furan-2-yl-4-hydroxy-4-trifluoromethyl-1,4,5,7-tetrahydro-pyrazolo[3,4-b]pyridin-6-one], for which the half-maximal inhibitory concentration (IC50) is more than 10 µM.

For the compound `COc1ccc(-c2n[nH]c3c2C(O)(C(F)(F)F)CC(=O)N3)cc1OC` (stereo not drawn) [Compound 31, 3-(3,4-Dimethoxy-phenyl)-4-hydroxy-4-trifluoromethyl-1,4,5,7-tetrahydro-pyrazolo[3,4-b]pyridin-6-one], the IC50 was less than 1 µM.
